Experimental data taken from patent US20040266732A1, “Therapeutic agents, methods, and treatments” (priority 2002, published 2004).

Assays:
Assay in all cases: NCI 60 cell-line test
Format in all cases: cell-based, human
SK-MEL-5 = SK-MEL-5 (Melanoma)
Method: (§1) Methodology: The NCI conducted a test of the MT103 drug against 60 human cell lines, with a minimum of five concentrations of MT103 at 10-fold dilutions. A 48 hour continuous drug exposure was used, and a sulforhodamine B (SRB) protein assay was used to estimate cell viability and growth. The human tumor cell lines of the cancer screening panel were grown in RPMI 1640 medium containing 5% fetal bovine serum and 2 mM L-glutamine. Cells were inoculated into 96 well microtiter plates in 100 μL at plating densities ranging from 5,000 to 40,000 cells/well depending on the doubling time of individual cell lines. After cell inoculation, the microtiter plates are incubated at 37° C., 5% CO2, 95% air, and 100% relative humidity for 24 h prior to addition of experimental drugs.
(§2) After 24 h, two plates of each cell line were fixed in situ with TCA, to represent a measurement of the cell population for each cell line at the time of drug addition (Tz). MT103 was solubilized in dimethyl sulfoxide at 400-fold the desired final maximum test concentration and stored frozen prior to use. At the time of drug addition, an aliquot of frozen concentrate was thawed and diluted to twice the desired final maximum test concentration with complete medium containing 50 μg/ml gentamicin. Additional four, 10-fold or ½ log serial dilutions were made to provide a total of five drug concentrations plus control. Aliquots of 100 μl of these different drug dilutions were added to the appropriate microtiter wells already containing 100 μl of medium, resulting in the required final drug concentrations.
(§3) Following drug addition, the plates were incubated for an additional 48 h at 37° C., 5% CO2, 95% air, and 100% relative humidity. For adherent cells, the assay was terminated by the addition of cold TCA. Cells were fixed in situ by the gentle addition of 50 μl of cold 50% (w/v) TCA (final concentration, 10% TCA) and incubated for 60 minutes at 4° C. The supernatant was discarded, and the plates were washed five times with tap water and air dried. Sulforhodamine B (SRB) solution (100 μl) at 0.4% (w/v) in 1% acetic acid was added to each well, and plates were incubated for 10 minutes at room temperature. After staining, unbound dye was removed by washing five times with 1% acetic acid and the plates were air-dried. Bound stain was subsequently solubilized with 10 mM trizma base, and the absorbance was read on an automated plate reader at a wavelength of 515 nm. For suspension cells, the methodology was the same except that the assay was terminated by fixing settled cells at the bottom of the wells by gently adding 50 μl of 80% TCA (final concentration, 16% TCA). Using the seven absorbance measurements (time zero, (Tz), control growth, (C), and test growth in the presence of drug at the five concentration levels (Ti)), the percentage growth was calculated at each of the drug concentrations levels. Percentage growth inhibition was calculated as:
(§4) [(Ti-Tz)/(C-Tz)]×100 for concentrations for which Ti>/=Tz
(§5) [(Ti-Tz)/Tz]×100 for concentrations for which Ti<Tz.
(§6) Three dose response parameters were calculated for each experimental agent. Growth inhibition of 50% (GI50) was calculated from [(Ti-Tz)/(C-Tz)]×100=50, which is the drug concentration resulting in a 50% reduction in the net protein increase (as measured by SRB staining) in control cells during the drug incubation. The drug concentration resulting in total growth inhibition (TGI) was calculated from Ti=Tz. The LC50 (concentration of drug resulting in a 50% reduction in the measured protein at the end of the drug treatment as compared to that at the beginning) indicating a net loss of cells following treatment was calculated from [(Ti-Tz)/Tz]×100=−50. Values were calculated for each of these three parameters if the level of activity is reached; however, if the effect was not reached or was exceeded, the value for that parameter was expressed as greater or less than the maximum or minimum concentration tested.

MDA-N = MDA-N (Breast Cancer)
Method: as §1, §2, §3, §4, §5, §6

A549/ATCC = A549/ATCC (Non-Small Cell Lung Cancer)
Method: as §1, §2, §3, §4, §5, §6

HT29 = HT29 (Colon Cancer)
Method: as §1, §2, §3, §4, §5, §6

SNB-19 = SNB-19 (CNS Cancer)
Method: as §1, §2, §3, §4, §5, §6

IGROV1 = IGROV1 (Ovarian Cancer)
Method: as §1, §2, §3, §4, §5, §6

U251 = U251 (CNS Cancer)
Method: as §1, §2, §3, §4, §5, §6

COLO 205 = COLO 205 (Colon Cancer)
Method: as §1, §2, §3, §4, §5, §6

SK-MEL-28 = SK-MEL-28 (Melanoma)
Method: as §1, §2, §3, §4, §5, §6

T-47D = T-47D (Breast Cancer)
Method: as §1, §2, §3, §4, §5, §6

MOLT-4 = MOLT-4 (Leukemia)
Method: as §1, §2, §3, §4, §5, §6

CAKI-1 = CAKI-1 (Renal Cancer)
Method: as §1, §2, §3, §4, §5, §6

UO-31 = UO-31 (Renal Cancer)
Method: as §1, §2, §3, §4, §5, §6

K-562 = K-562 (Leukemia)
Method: as §1, §2, §3, §4, §5, §6

NCI-H460 = NCI-H460 (Non-Small Cell Lung Cancer)
Method: as §1, §2, §3, §4, §5, §6

[1] = read-out: LC50 (the source's name)

SMILES: CC1(C)C2CC[C@@]1(CS(=O)(=O)N(C1CCCCC1)C1CCCCC1)C(O)C2 (stereo partly drawn) [MT103]
- TGI (SK-MEL-5): 3.61E−05
- IC50 (SK-MEL-5; read-out: G150): 16.8 µM
- CC50 (SK-MEL-5; [1]): 77.7 µM
- TGI (MDA-N): >1.00E−04
- IC50 (MDA-N; read-out: G150): 27.1 µM
- CC50 (MDA-N; [1]): > 100 µM
- TGI (A549/ATCC): >1.00E−04
- IC50 (A549/ATCC; read-out: G150): 28.3 µM
- CC50 (A549/ATCC; [1]): > 100 µM
- TGI (HT29): >1.00E−04
- IC50 (HT29; read-out: G150): 23.5 µM
- CC50 (HT29; [1]): > 100 µM
- TGI (SNB-19): >1.00E−04
- IC50 (SNB-19; read-out: G150): 68 µM
- CC50 (SNB-19; [1]): > 100 µM
- TGI (IGROV1): >1.00E−04
- IC50 (IGROV1; read-out: G150): 34.8 µM
- CC50 (IGROV1; [1]): > 100 µM
- TGI (U251): >1.00E−04
- IC50 (U251; read-out: G150): 28.7 µM
- CC50 (U251; [1]): > 100 µM
- TGI (COLO 205): 4.98E−05
- IC50 (COLO 205; read-out: G150): 21.3 µM
- CC50 (COLO 205; [1]): > 100 µM
- TGI (SK-MEL-28): >1.00E−04
- IC50 (SK-MEL-28; read-out: G150): 50.7 µM
- CC50 (SK-MEL-28; [1]): > 100 µM
- TGI (T-47D): >1.00E−04
- IC50 (T-47D; read-out: G150): 62 µM
- CC50 (T-47D; [1]): > 100 µM
- TGI (MOLT-4): >1.00E−04
- IC50 (MOLT-4; read-out: G150): 20.6 µM
- CC50 (MOLT-4; [1]): > 100 µM
- TGI (CAKI-1): 9.05E−05
- IC50 (CAKI-1; read-out: G150): 23.5 µM
- CC50 (CAKI-1; [1]): > 100 µM
- TGI (UO-31): 8.94E−05
- IC50 (UO-31; read-out: G150): 28 µM
- CC50 (UO-31; [1]): > 100 µM
- TGI (K-562): >1.00E−04
- IC50 (K-562; read-out: G150): 26.8 µM
- CC50 (K-562; [1]): > 100 µM
- TGI (NCI-H460): >1.00E−04
- IC50 (NCI-H460; read-out: G150): 30.9 µM
- CC50 (NCI-H460; [1]): > 100 µM
